These results are taken from US20140377219A1, “HIV INHIBITORS” (New york Blood Center, Inc., priority 2011, published 2014).

Structures can show the parent of a compound that is named as a salt. Where two headings read alike, the source gives them in different places. Bounds are passed on as bounds.

The test system of data set [1] is TZM-bl cells. In words: Cytotoxicity in TZM-bl cells (XTT). Type of data set: cell-based. The method, then: (§1) The cytotoxicity of small molecules in TZM-bl cells was measured by a colorimetric method using XTT (sodium 3′-(1-(phenylamino)-carbonyl)-3,4-tetrazolium-bis(4-methoxy-6-nitro)benzenesulfonic acid hydrate), a light yellowish tetrazolium dye. Briefly, 100 μl of a compound at graded concentrations was added to equal volume of cells (10^5/ml) in wells of 96-well plates followed by incubation at 37° C. for 3 days and addition of XTT (PolySciences, Inc., Warrington, Pa.).
(Tetrazolium assays rely on reduction of a dye to a coloured formazan, in cell work by metabolically active cells.)

Data set [2] has as its system laboratory-adapted HIV-1 IIIB strain. In words: microbe, parasite or virus in culture. To be noted: Human immunodeficiency virus 1, IIIB, MT2, read-out: MT-2 Cells IC50 (μM ± SD).
Description: (§3) In brief, 1×10^4 MT-2 cells were infected with HIV-1 at 100 TCID50 (50% tissue culture infective dose) (0.01MOI) in 200 μl medium in the presence or absence of small molecules at graded concentrations and incubated overnight. The culture supernatants were then removed and replaced with fresh media. On the fourth day post-infection, 100 μl of culture supernatants were collected from each well, mixed with equal volume of 5% Triton X-100 and tested for p24 antigen by sandwich-ELISA. The percent inhibition of p24 production and IC50 values were calculated by the GraphPad Prism software (GraphPad Software Inc.).
Data set [3] deals with MT-2 cells. In words: Cytotoxicity in MT-2 cells (XTT). Type of data set: cell-based. The method, then:
(§2) Cytotoxicity of small molecules in MT-2 cells and PBMC was measured by the XTT ((sodium 3′-(1-(phenylamino)-carbonyl)-3,4-tetrazolium-bis(4-methoxy-6-nitro)benzene-sulfonic acid hydrate)) method. Briefly, for MT-2 cells, 100 μl of a small molecule at graded concentrations was added to an equal volume of cells (10^5 cells/ml) in 96-well plates followed by incubation at 37° C. for four days, which ran parallel with the neutralization assay in MT-2 (except medium was added instead of virus). In the case of PBMC, 5×10^5 cells/ml was used and the cytotoxicity was measured after seven days. […] The percentage cytotoxicity and the CC50 values were calculated as described above.

Data set [4] has as its system laboratory-adapted HIV-1 IIIB strain. To be noted: read-out: MT-2 Cells IC50 (μM ± SD); multi-cycle assay, MT-2 cells, HIV-1 IIIB.
Description: as §3
Data set [5] in a line: Cytotoxicity in TZM-bl cells (XTT). Type of data set: cell-based. To be noted: human; TZM-bl cells, XTT, 3 days; read-out: TZM-bl cells CC50 (μM ± SD). How it is done:
as §1

Data set [6] is described as follows: Cytotoxicity in MT-2 cells (XTT). Type of data set: cell-based. To be noted: human; MT-2 cells, XTT, four days. How it is done:
as §2

[7] abbreviates: at the dose given as CC50 bound.
[8] abbreviates: MT-2 cells, XTT, four days, read-out: MT-2 Cells CC50.
Where [9] appears, read: TZM-bl cells, XTT, 3 days, read-out: TZM-bl cells CC50 (μM ± SD).

As for `CC(=O)N1CCCCC1C(NC(=O)C(=O)Nc1ccc(Cl)cc1)c1nc(C)c(CCO)s1` (stereo not drawn) [Compound 13, N^1-((1-acetylpiperidin-2-yl)(5-(2-hydroxyethyl)-4-methylthiazol-2-yl)methyl)-N^2-(4-chlorophenyl)oxalamide], the “% toxicity at that dose (number in parenthesis), TZM-bl cells” value (“% toxicity at that dose … TZM-bl cells” for short) in data set [1] (setting [7]) is on record as 20%. Further, the IC50 in data set [2] is greater than 52 µM.
Compound `CCn1cc(NC(=O)C(=O)Nc2ccc(Cl)cc2)cn1` [Compound 17, N^1-(4-chlorophenyl)-N^2-(1-ethyl-1H-pyrazol-4-yl)oxalamide] had a melting point of 232 to 233 °C. Besides, the CC50 in data set [3] (setting [8]) stood at 10.7 ± 1.6 µM.
Regarding `C[C@@H](NC(=O)C(=O)Nc1ccc(Cl)cc1)[C@H](c1ccccc1)N1CCOCC1` [Compound 19, N^1-(4-chlorophenyl)-N^2-((1S,2R)-1-morpholino-1-phenylpropan-2-yl)oxalamide], the 50% inhibitory concentration (IC50) in data set [2] was greater than 24.9 µM.
As for `CC(=O)c1ccc(NC(=O)C(=O)NC(c2nc(C)c(CCO)s2)C2CCCCN2)cc1` (stereo not drawn) [Compound 34, N^1-(4-acetylphenyl)-N^2-((5-(2-hydroxyethyl)-4-methylthiazol-2-yl)(piperidin-2-yl)methyl)oxalamide.2HCl], the CC50 in data set [1] is greater than 77.3 µM; in data set [3] it was greater than 48.3 µM. Also, the IC50 in data set [4] worked out at 24.5 ± 1.5 µM.
Regarding `Cc1nc(C(NC(=O)C(=O)Nc2ccc(F)c(Cl)c2)C2CCCCN2)sc1CCO.Cl.Cl` (stereo not drawn) [Compound 35, N^1-(3-chloro-4-fluorophenyl)-N^2-((5-(2-hydroxyethyl)-4-methylthiazol-2-yl)(piperidin-2-yl)methyl)oxalamide.2HCl], the “% toxicity at that dose … TZM-bl cells” value in data set [1] is >75.8 (20%). The values for the CC50 in data set [1] and in data set [3] were greater than 75.8 µM and roughly 94.7 µM, respectively. The IC50 in data set [4] was 19.5 ± 1.8 µM.
Turning to `Cc1ccc(NC(=O)C(=O)NC(c2nc(C)c(CCO)s2)C2CCCCN2)c(F)c1` (stereo not drawn) [Compound 37, N^1-(2-fluoro-4-methylphenyl)-N^2-((5-(2-hydroxyethyl)-4-methylthiazol-2-yl)(piperidin-2-yl)methyl)oxalamide.2HCl], the half-maximal cytotoxic concentration (CC50) in data set [1] (setting [9]) and in data set [3] (setting [8]) was greater than 78.8 µM each time. Moreover, in data set [4], the IC50 came out at 45.8 ± 3.5 µM.
Consider `Cc1nc(C(NC(=O)C(=O)NC2CCCCCC2)C2CCCCN2)sc1CCO` (stereo not drawn) [Compound 40, N^1-cycloheptyl-N^2-((5-(2-hydroxyethyl)-4-methylthiazol-2-yl)(piperidin-2-yl)methyl)oxalamide.HCl], for which the CC50 in data set [1] (setting [9]) is greater than 88 µM; in data set [3] (setting [8]), roughly 60 µM. In data set [4], the half-maximal inhibitory concentration (IC50) was 19.6 ± 4 µM.
For the compound `Cc1nc(C(NC(=O)CCC(=O)Nc2ccc(Cl)cc2)C2CCCN2)sc1CO` (stereo not drawn) [Compound 41, N^1-(4-chlorophenyl)-N^4-((5-(hydroxymethyl)-4-methylthiazol-2-yl)(pyrrolidin-2-yl)methyl)succinamide.HCl], the half-maximal cytotoxic concentration (CC50) in data set [1] and in data set [3] was greater than 85 µM in each case. Further, the IC50 in data set [4] is greater than 42 µM.
With `O=C(CCC(=O)Nc1ccc(Cl)cc1)NCc1ccc(S(=O)(=O)N2CCOCC2)cc1` [Compound 42, N^1-(4-chlorophenyl)-N^4-(4-(morpholinosulfonyl)benzyl)succinamide], the melting point was 208 to 209 °C (dec.). Moreover, the half-maximal cytotoxic concentration (CC50) at 3 days in data set [5] was roughly 30 µM. In addition, in data set [2], the concentration for half-maximal inhibition (IC50) amounted to 23.9 ± 1.8 µM. The compound also gave a CC50 at 4 days in data set [6] of 21.2 ± 1.5 µM.
The like results for `O=C(CCC(=O)Nc1ccc(Cl)cc1)NCCCN1CCCC(O)C1` (stereo not drawn) [Compound 43, N^1-(4-chlorophenyl)-N^4-(3-(3-hydroxypiperidin-1-yl)propyl)succinamide] were, in that order, 122 to 123 °C, roughly 82 µM, roughly 109 µM and roughly 109 µM.
The like results for `O=C(CCC(=O)Nc1ccc(Cl)cc1)NCCCN1CCC(O)CC1` [Compound 44, N^1-(4-chlorophenyl)-N^4-(3-(4-hydroxypiperidin-1-yl)propyl)succinamide] were, in that order, 154 to 155 °C, roughly 109 µM, greater than 109 µM and greater than 109 µM.
Consider `CC1CCCN(c2ccccc2CNC(=O)CCC(=O)Nc2ccc(Cl)cc2)C1` (stereo not drawn) [Compound 45, N^1-(4-chlorophenyl)-N^4-(2-(3-methylpiperidin-1-yl)benzyl)succinamide], for which the melting point lay in the range of 162 to 163 °C. Besides, the CC50 at 3 days in data set [5] is greater than 97 µM. Besides, the concentration for half-maximal inhibition (IC50) in data set [2] is greater than 97 µM. Also, the CC50 at 4 days in data set [6] was greater than 97 µM.
For the compound `CCC(CN1CCOCC1)NC(=O)CCC(=O)Nc1ccc(Cl)cc1` (stereo not drawn) [Compound 46, N^1-(4-chlorophenyl)-N^4-(1-morpholinobutan-2-yl)succinamide], the CC50 at 3 days in data set [5] is greater than 109 µM. The IC50 in data set [2] worked out at 33.2 ± 2.2 µM. The midpoint of cytotoxicity in data set [6], the CC50 at 4 days, lay at 41.9 ± 1.6 µM.
Turning to `CN1CCN(C(=O)CNC(=O)CCC(=O)Nc2ccc(Cl)cc2)CC1` [Compound 47, N^1-(4-chlorophenyl)-N^4-(2-(4-methylpiperazin-1-yl)-2-oxoethyl)succinamide .HCOOH], the CC50 in data set [1] is roughly 36 µM; in data set [3], roughly 97 µM. For the same compound, the concentration for half-maximal inhibition (IC50) in data set [4] is roughly 48 µM.
For `CC(C)c1nccn1CCCNC(=O)CCC(=O)Nc1ccc(Cl)cc1` [Compound 48, N^1-(4-chlorophenyl)-N^4-(3-(2-isopropyl-1H-imidazol-1-yl)propyl)succinamide. HCOOH], the CC50 in data set [1] and in data set [3] was greater than 95 µM each time. Further, the 50% inhibitory concentration (IC50) in data set [4] is greater than 36 µM.
`Cc1nccn1CCCNC(=O)CCC(=O)Nc1ccc(Cl)cc1` [Compound 49, N^1-(4-chlorophenyl)-N^4-(3-(2-methyl-1H-imidazol-1-yl)propyl)succinamide. HCOOH]: the CC50 in data set [1] was 102 µM; in data set [3], greater than 102 µM. Moreover, in data set [4], the IC50 is greater than 38 µM.
Regarding `Cc1nc2ncccn2c1CN1CCC(NC(=O)CCC(=O)Nc2ccc(Cl)cc2)CC1` [Compound 50, N^1-(4-chlorophenyl)-N^4-(1-((2-methylimidazo[1,2-a]pyrimidin-3-yl)methyl)piperidin-4-yl)succinamide], the CC50 at 3 days in data set [5] is greater than 88 µM. Moreover, the IC50 in data set [2] is greater than 33 µM. This compound also returned a CC50 at 4 days in data set [6] greater than 88 µM.
Regarding `Cc1nc(C(NC(=O)CCC(=O)Nc2ccc(Cl)cc2)C2CCCCN2)sc1CO.Cl` (stereo not drawn) [Compound 51, N^1-(4-chlorophenyl)-N^4-((5-(hydroxymethyl)-4-methylthiazol-2-yl)(piperidin-2-yl)methyl)succinamide.HCl], the cytotoxic concentration (CC50) in data set [1] (setting [9]) and in data set [3] (setting [8]) was greater than 82 µM in each case. Also, the “% toxicity at that dose … TZM-bl cells” value in data set [1] (setting [7]) amounted to 0%. The “% toxicity at that dose (number in parenthesis), MT-2 cells” value in data set [3] (setting [7]) was 20%. In addition, in data set [4], the IC50 is roughly 40 µM.

Usually IC50 stands for the point on the concentration scale where inhibition reaches its midpoint. One may read the melting point as the temperature of the solid-liquid transition. Usually CC50 stands for the concentration giving 50% cytotoxicity.
